Values of other authors, collected in patent US20050209551A1, “Detoxification and breast health preparations” (priority 2004, published 2005).

How the values were obtained:
[1] = tested on: precancerous lesions of the cervix and laryngeal papillomas; conditions: pathologies with a human papillomavirus (HPV); reported
[2] = oral administration

| fraction of EDTA absorbed when administered by mouth ([2]; general consensus) | unabsorbed EDTA that remains within the digestive tract ([2]; reported) [%] | SMILES | clinical effectiveness in treating precancerous lesions of the cervix and laryngeal papillomas [1] |
| --- | --- | --- | --- |
|  |  | c1ccc2c(Cc3c[nH]c4ccccc34)c[nH]c2c1 [DIM, 3,3′-diindolylmethane] | clinically effective |
| about five | 95 | O=C(O)CN(CCN(CC(=O)O)CC(=O)O)CC(=O)O [EDTA, ethylene-diaminetetraacetic acid] |  |
|  |  | OCc1c[nH]c2ccccc12 [Example I3C, indole-3-carbinol] | clinically effective |
